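These data come from cells grown in 96-well plates and exposed to compound for 48 hours at five concentrations. At the GI50, growth is halved. TGI denotes the concentration required for complete inhibition of growth.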
Experiments:
Experiment in all cases: inhibition of tumour cell growth, NCI panel, 48 h
HCT-15 colon = tested on: HCT-15 colon
UO-31 renal = tested on: UO-31 renal
KM12 colon = tested on: KM12 colon
786-0 renal = tested on: 786-0 renal
SR leukemia = tested on: SR leukemia
A498 renal = tested on: A498 renal
HOP-62 NSCLC = tested on: HOP-62 NSCLC
CAKI-1 renal = tested on: CAKI-1 renal
M14 melanoma = tested on: M14 melanoma
HOP-92 NSCLC = tested on: HOP-92 NSCLC

Compound | GI50 (HCT-15 colon) | TGI (HCT-15 colon) | GI50 (UO-31 renal) | TGI (UO-31 renal) | GI50 (KM12 colon) | TGI (KM12 colon) | GI50 (786-0 renal) | TGI (786-0 renal) | GI50 (SR leukemia) | TGI (SR leukemia) | GI50 (A498 renal) | TGI (A498 renal) | GI50 (HOP-62 NSCLC) | TGI (HOP-62 NSCLC) | GI50 (CAKI-1 renal) | TGI (CAKI-1 renal) | GI50 (M14 melanoma) | TGI (M14 melanoma) | GI50 (HOP-92 NSCLC) | TGI (HOP-92 NSCLC)
C#CCN=C(N/N=C/c1ccc([N+](=O)[O-])o1)NS(=O)(=O)c1cc(C)c(Cl)cc1SCC(N)=O | 22.1 µM | 56.4 µM | 17.6 µM | 31.4 µM | 18.8 µM | 38.9 µM | 19.4 µM | 36.5 µM | 17 µM | 50.1 µM | 17.1 µM | 32.7 µM | 12.9 µM | 25.7 µM | 25.7 µM | 45.1 µM |  |  |  | 
O=C1OCc2c1cc(F)cc2[N+](=O)[O-] | > 100 µM | > 100 µM | > 100 µM | > 100 µM | > 100 µM | > 100 µM | > 100 µM | > 100 µM | > 100 µM | > 100 µM | > 100 µM | > 100 µM | > 100 µM | > 100 µM | > 100 µM | > 100 µM | > 100 µM | > 100 µM |  | 
COc1ccc(/C(C)=C(\c2ccc(Cl)cc2)c2ccc(OCCN3CCCC3)cc2)cc1F | 0.848 µM | 3.38 µM | 2.95 µM | 6.26 µM | 1.26 µM | 4.5 µM | 3.39 µM | 7.02 µM | 1.18 µM | 6.47 µM |  |  | 3.92 µM | 8.22 µM | 3.43 µM | 6.69 µM | 0.882 µM | 3.09 µM | 3.12 µM | 6.63 µM
CN=C1Nc2ccc(Cl)cc2C(c2ccccc2)=NN1C |  | > 100 µM |  | > 100 µM |  | > 100 µM |  | > 100 µM |  |  |  | > 100 µM |  | > 100 µM |  | > 100 µM |  | > 100 µM |  | 77.5 µM
O=C(O)c1ccc2c(c1Nc1ccccc1)C(=O)c1ccccc1C2=O | 72.8 µM | > 100 µM | 11.8 µM | > 100 µM | 61.1 µM | > 100 µM | 39.4 µM | > 100 µM | 41 µM | > 100 µM |  |  | 35.6 µM | > 100 µM | 16 µM | 47.1 µM | 38.1 µM | > 100 µM | 27.9 µM | > 100 µM
C#CCOCn1cnc2c(=S)nc[nH]c21 |  | > 100 µM |  | > 100 µM |  | > 100 µM |  | > 100 µM |  |  |  | > 100 µM |  | > 100 µM |  | > 100 µM |  | > 100 µM |  | > 100 µM
NC(CNO)C(=O)O (centres undefined) |  | > 100 µM |  | > 100 µM |  | > 100 µM |  | > 100 µM |  |  |  | > 100 µM |  | > 100 µM |  | > 100 µM |  | > 100 µM |  | > 100 µM
CCc1ccccc1NC(=O)CCc1n[nH]c(=S)o1 |  | 36.8 µM |  | > 100 µM |  | > 100 µM |  | > 100 µM |  |  |  | > 100 µM |  | > 100 µM |  | > 100 µM |  | > 100 µM |  | > 100 µM
O=C(Nc1n[nH]c2nc(-c3ccco3)ccc12)C1CC1 | > 25 µM | > 25 µM | > 25 µM | > 25 µM | > 25 µM | > 25 µM | > 25 µM | > 25 µM |  |  | > 25 µM | > 25 µM | > 25 µM | > 25 µM | > 25 µM | > 25 µM | > 25 µM | > 25 µM | > 7.9 µM | > 7.9 µM
Cn1ncc2c(/N=C/c3cccs3)[nH]c(=S)nc21 | 42.4 µM | > 100 µM | 58.6 µM | > 100 µM | 28.8 µM | > 59.4 µM | 60.1 µM | > 100 µM |  |  | 0.689 µM | 27.5 µM | 52.9 µM | > 93.8 µM | 33.4 µM | > 100 µM | 45.7 µM | > 100 µM | 61.2 µM | > 100 µM
CCC1=C(C)/C(=C/c2[nH]c(CBr)c(CC)c2C)N=C1CBr |  | 27.2 µM |  | 15.8 µM |  | 26.9 µM |  | 40.4 µM |  |  |  |  |  | 34.8 µM |  | 25.8 µM |  | 33.1 µM |  | 26.7 µM
O=c1c2ccccc2nc(-c2ccc(Br)cc2)n1NC1OC(CO)C(O)C(O)C1O (centres undefined) |  | > 100 µM |  | > 100 µM |  | > 100 µM |  | > 100 µM |  |  |  | > 100 µM |  | > 100 µM |  | > 100 µM |  | > 100 µM |  | > 100 µM
COc1cc(/C=C2\[C@H]3c4c(c(OC)c(C)c(OC)c4OC)C[C@@H](C(=O)N2Cc2ccccc2)N3C(=O)OC(C)C)c(OC)c(C)c1OC |  |  |  | > 100 µM |  | > 100 µM |  | > 100 µM |  | > 100 µM |  | > 100 µM |  | > 100 µM |  |  |  | > 100 µM |  | > 100 µM
N.N.N.N.N.N.[I-].[Os] | > 100 µM | > 100 µM | > 100 µM | > 100 µM | > 100 µM | > 100 µM | > 100 µM | > 100 µM |  |  | > 100 µM | > 100 µM | > 100 µM | > 100 µM | > 100 µM | > 100 µM | > 100 µM | > 100 µM | > 100 µM | > 100 µM
Cc1ccc(S(=O)(=O)/N=c2\ssc(Nc3ccccc3)c2Cl)cc1 | 11.9 µM | 34.4 µM | 21.3 µM | > 50 µM | 8.26 µM | 20.4 µM | 27.7 µM | > 50 µM | 9.06 µM | 25.1 µM |  |  | 23.6 µM | > 50 µM | 7.6 µM | 21.1 µM | 22.8 µM | > 50 µM | 7.43 µM | > 50 µM
Cc1n[nH]c(=S)n1/N=C/c1ccc(F)c(Oc2ccccc2)c1 | 49.7 µM | > 100 µM | 50 µM | > 100 µM | 41.3 µM | > 100 µM | 42.3 µM | > 100 µM |  |  |  |  | 49.4 µM | > 100 µM | 0.496 µM | 0.944 µM | 36.9 µM | > 100 µM | 63.3 µM | > 100 µM

Source: PubChem BioAssay (NCI)
